The values that follow come from patent US20150111852A1, “1-Di(sec-butyl)-phosphinoyl-pentane (dapa-2-5) as a topical agent” (priority 2013, published 2015).

Converted amounts (≈) assume the structure as drawn.

The test system of data set [1] is mouth and throat. In words: Sensory activity of ODT-C on volunteers (double-blind, modified ASHRAE scale). It counts as in vivo, human. The conditions noted are these: for ODT-C test results (sensation and taste in words) / duration of cooling effect: 1.2 to 1.5 mg per ODT; for ODT-C test results (sensation and taste in words): 4 volunteers; for ASHRAE equivalent: peak heat abstraction sensation, modified ASHRAE scale neutral [0] to icy cold [-4]; for quality of heat abstraction sensation (peak intensity) / duration of cooling effect: ODT-C. The protocol:
ODT-C. More experiments were conducted to find a smaller tablet, in the range of 40 to 60 mg, with a disintegration of <10 sec. These paraemters might achieve a better pharmacological effect. ODT-B was 100 mg in size and disintegrated in <20 sec. […] For example, to 1.5 g of DAPA-2-5 is added 1.5 g of absolute ethanol, followed by 2.0 g of Neusilin US2. The mixture is shaken or mixed in a Speedmixer at 500 rpm for 1 min. The sample is placed under a heat source and about 2 hr later, the sample size is re-weighed with the expectation that the ethanol has been evaporated and the sample now weights 3.5 g. This powder is free-flowing. • b. a sample of maltitol powder is prepared (Maltisorb® P200 from Roquette). • c. a sample of Prosolv® EasyTab is prepared (JRS Pharma, Rosenburg, Germany). • d. a blend of a. [2.80 g], b. [15.73 g] and c. [31.46 g] is prepared to make 1000 ODT tablets, each weighing 50 mg and containing 1.2 mg of DAPA-2-5. • e. the blend is first shaken by hand, then placed for 2 min in a SpeedMixer at 500 rpm. The blend is poured into the funnel of a New Single Punch Tablet Press Pill Making Machine Maker TDP-1-5 [available from Amazon.com] and the extruded tablets are collected.
ODT-C, described in Study 2, were tested for sensory properties on 4 volunteers, with at least 3 trials per compound and at 1.2 to 1.5 mg per ODT. The ODT was placed on the mid-line posterior dorsal surface of the tongue and sensory effects recorded for 30 min on a standardized form […]. The ODT were coded and administered on a double-blind basis. A modified ASHRAE scale of neutral, slightly cool [-1], cool [-2], cold [-3], and icy cold [-4] was used to rank the peak heat abstraction sensations in the mouth and throat. Other perceived effects, e.g. taste and duration, were also noted.

In data set [2] the test system is 0.1 N HCl-induced swallowing, pharyngolaryngeal region. The data set is described as follows: Acid-induced swallowing movements in the anesthetized rat. It counts as in vivo. The conditions noted are these: for Relative Potency (suppression of swallowing): DAPA-2-5 = 1.0. The text has this: A principal endogenous irritant in the linings of the upper aerodigestive tract is hydrochloric acid. Acid stimulations of the mucosa of the pharynx will elicit reflex swallowing. […] In a rat animal model, solutions of organic acids such as acetic acid and citric acid were effective in eliciting swallowing [Kajii et al., Sour taste stimulation facilitates reflex swallowing from the pharynx and larynx in the rat Physiology & Behavior 77: 321-325, 2002]. In the present discovery, the method for measuring sensory responses to acid was adapted for screening agents that might suppress the sensitivity to hydrochloric acid. Agents that suppress the acid challenge may then have utility in relieving the discomfort of heartburn.
Experiments were conducted at the Pavlov Institute of Physiology, St. Petersburg, Russia. Adult male Wistar rats, weighing 200 to 400 g, were obtained from the Roppolovo Vivarium. All rats were anesthetized with sodium pentobarbital/urethane and fixed in the supine position. Body temperature was maintained at 37.0° C. with a heating pad. A midline incision was made in the ventral surface of the neck and the trachea was cannulated. A guide tube (polyethylene, diameter 2.2 mm) was fixed at the midline of the hard palate and an internal infusion tube (polyethylene, diameter 0.9 mm) was then placed flush to the end of soft palate. This procedure allows stimulation of the pharyngolaryngeal region with liquids, with minimum mechanical perturbation. An esophageal tube was placed at the thoracic level to drain solutions after infusion. The infused solution was applied to the pharyngolaryngeal region at a flow rate of 1.5 pUs for 20 sec using an infusion pump, giving a total unit volume of approximately 30 μL. Stimulations were applied at intervals of 2 to 3 min, with intervals allowed for rinsing and cleansing with suction. The solutions infused were distilled water, normal saline, 0.1 N hydrochloric acid, or test compounds dissolved in normal saline. A paired unipolar electrode was inserted into unilateral mylohyoid muscle to record electromyogram (EMG) activity and the signal processed for later analysis. Swallowing movements was identified as the EMG activity and could also be visualized as laryngeal movement. The number of swallows in a fixed interval was used as the endpoint.
The test procedures were similar to those described earlier (see, e.g., Kajii et al., 2002). Also, the drainage of the esophagus was at the thoracic level to avoid mechanical disturbance of the pharynx. The infusion rate of solutions was 1.5 μL/sec for 15 to 18 sec.
The response to 0.1 N HCl infusion (30 μL over an approximately 18 second period) was highly reproducible. On average there were 36±4 swallowing movements within one min (N=7 rats). This response could be elicited in the same rat over a 2 hour period with a rest period or saline infusions at 10 min intervals.
The up-down method of Dixon [Efficient analysis of experimental observations. Ann. Rev. […] The EC50 (N=8) for DAPA-2-5 was estimated to be 0.09 mg/mL.

Data set [3] has as its target T1, TRPA1 channels (human TRPA1 gene expressed in CHO cells) (Homo sapiens, UniProt O75762).
T1 construct: expressed in transfected cells; host or cells: CHO cells
The data set is described as follows: TRPA1 agonist assay. It counts as cell-based. The conditions noted are these: maximum tested concentrations of 100 μM. The protocol: To examine the specificity of the test compounds, further studies were conducted on TRPV1 channels (human TRPV1 gene expressed in HEK293 cells) and TRPA1 channels (human TRPA1 gene expressed in CHO cells). The test cells were Chinese Hamster Ovary (CHO) cells or Human Embyronic Kidney (HEK) 293 cells transfected with human TRPV1 or TRPA1 cDNAs.

The test system of data set [4] is rat skin. The data set is described as follows: Irritant activity on shaved abdominal rat skin. It counts as in vivo. The arrangement: key to Redness after 20 μL applied topically to skin (scale of 0 to +++): the presence of redness (irritation) was graded on a scale of 0 to +++; the presence of redness (irritation) was graded on a scale of 0 to +++; the presence of redness (irritation) was graded on a scale of 0 to +++; the presence of redness (irritation) was graded on a scale of 0 to +++. The conditions noted are these: for Redness after 20 μL applied topically to skin (scale of 0 to +++): pure compound, 1 hour; for skin irritancy in words: undiluted form. The protocol: This hypothesis was tested by applying 20 μL of the pure compound onto the shaved abdominal skin of a pentobarbital-anesthetized rat. The test substance was enclosed in a circle of ˜1 cm diameter with a ring of cream. The test substance was applied with a micropipette, and after 1 hour the area was wiped with a cotton pad and the presence of redness (irritation) was graded on a scale of 0 to +++.

T1 sequence (O75762 whole entry): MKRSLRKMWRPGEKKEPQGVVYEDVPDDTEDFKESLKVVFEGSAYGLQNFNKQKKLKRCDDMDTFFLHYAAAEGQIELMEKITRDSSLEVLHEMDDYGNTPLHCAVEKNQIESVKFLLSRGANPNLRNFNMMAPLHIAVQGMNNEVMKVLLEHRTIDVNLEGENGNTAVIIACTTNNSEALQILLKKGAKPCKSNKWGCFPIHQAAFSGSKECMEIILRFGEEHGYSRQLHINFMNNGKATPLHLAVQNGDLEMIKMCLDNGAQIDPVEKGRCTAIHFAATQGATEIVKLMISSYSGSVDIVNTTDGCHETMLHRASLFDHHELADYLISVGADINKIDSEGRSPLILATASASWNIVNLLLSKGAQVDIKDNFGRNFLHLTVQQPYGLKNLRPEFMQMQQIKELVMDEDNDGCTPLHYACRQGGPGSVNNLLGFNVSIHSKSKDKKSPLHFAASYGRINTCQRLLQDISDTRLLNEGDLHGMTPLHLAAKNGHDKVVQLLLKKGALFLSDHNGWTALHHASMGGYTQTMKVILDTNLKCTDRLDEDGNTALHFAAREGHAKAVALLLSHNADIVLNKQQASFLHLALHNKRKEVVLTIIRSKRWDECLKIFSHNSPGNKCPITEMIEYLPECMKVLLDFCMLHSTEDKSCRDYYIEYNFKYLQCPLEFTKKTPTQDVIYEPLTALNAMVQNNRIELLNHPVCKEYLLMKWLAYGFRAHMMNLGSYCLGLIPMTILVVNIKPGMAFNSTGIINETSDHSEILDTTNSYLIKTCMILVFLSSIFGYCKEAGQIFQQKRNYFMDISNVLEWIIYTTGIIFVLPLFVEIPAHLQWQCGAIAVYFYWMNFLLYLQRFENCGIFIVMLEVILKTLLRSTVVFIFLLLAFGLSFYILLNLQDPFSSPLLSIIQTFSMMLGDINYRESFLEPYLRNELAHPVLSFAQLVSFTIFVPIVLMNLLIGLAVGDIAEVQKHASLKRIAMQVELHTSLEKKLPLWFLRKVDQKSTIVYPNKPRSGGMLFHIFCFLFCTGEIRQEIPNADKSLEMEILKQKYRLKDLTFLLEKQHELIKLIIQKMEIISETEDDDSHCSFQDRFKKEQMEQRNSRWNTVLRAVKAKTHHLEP

For the molecule `CCCCCCCCP(=O)(C(C)CC)C(C)CC` (stereo not drawn) [DAPA-2-8, 1-Di(sec-butyl) phosphinoyl-octane], in data set [1], the “ODT-C test results (sensation and taste in words)” value (“ODT-C test results” for short) is given as “strong unpleasant taste”; the ASHRAE equivalent is −2.7. Further, in data set [2], the “Relative Potency (suppression of swallowing)” value (“Relative Potency” for short) came out at 0.16.
With `CCCCCCCP(=O)(C(C)CC)C(C)CC` (stereo not drawn) [DAPA-2-7, 1-Di(sec-butyl) phosphinoyl-heptane], in data set [1], the “ODT-C test results” value is “intense sensation of icy cold, but has unpleasant”; the “quality of heat abstraction sensation (peak intensity)” value (shortened to “quality of heat abstraction sensation”) is “cold and icy cold which was painful to the back of the throat”; the “duration of cooling effect” value is recorded as “taste on the tongue, long-lasting >15 min”; the ASHRAE equivalent is listed as −3.5. In addition, the “agonist activity on TRPA1 channels” value in data set [3] is reported as “did not exhibit any agonist activity”. In data set [4], the “Redness after 20 μL applied topically to skin (scale of 0 to +++)” value (“Redness after 20 μL applied topically” for short) is listed as “++” and the “skin irritancy in words” value was “is a skin irritant”. Besides, in data set [2], the “Relative Potency” value is 0.45. In data set [2] (rat, in vivo), the “Comments (duration of inhibition)” value was >~30 min and the “Comments (reversibility of inhibition)” value is listed as “long-lasting;”.
Regarding `CCCCCP(=O)(C(C)CC)C(C)CC` (stereo not drawn) [DAPA-2-5, 1-Di(sec-butyl)-phosphinoyl-pentane], in data set [1], the “ODT-C test results” value was “pleasant dynamic cool”; the “quality of heat abstraction sensation” value is “refreshing coolness and cold”; the “duration of cooling effect” value was 12 to 15 min; the ASHRAE equivalent is −2.7. Moreover, the “agonist activity on TRPA1 channels” value in data set [3] is given as “did not exhibit any agonist activity”. Further, in data set [4], the “Redness after 20 μL applied topically” value is recorded as 0 and the “skin irritancy in words” value is given as “minimal or no pro-inflammatory actions on the skin”. For the same molecule, the “swallows after second acid challenge” value in data set [2] (DAPA-2-5 0.4 mg/mL, 10 min after, 8 min after) is reported as 9 swallows per min. In addition, the “swallows after third acid challenge” value in data set [2] (DAPA-2-5 0.4 mg/mL, 15 min after, after saline rinse, 22 min after) is listed as 27 swallows/min. Further, the “swallows after first acid challenge” value in data set [2] (DAPA-2-5 0.4 mg/mL, challenge 5 min later, within 3 min) was determined as 3 swallows/min. Further, the “Relative Potency” value in data set [2] turned out to be 1.0. For the same molecule, in data set [2] (Rattus norvegicus, up-down method, 50% reduction of swallowing frequency, N=4 to 8, read-out: EC50 ± S.E.M. (mg/mL), suppression of acid-induced swallowing), the EC50 was 0.09 mg/mL (≈ 387 µM). For the same molecule, in data set [2] (rat, in vivo), the “Comments (duration of inhibition)” value is around 15 min and the “Comments (reversibility of inhibition)” value is “reversible;”.
Regarding `CCCCCCP(=O)(C(C)C)C(C)C` [DAPA-1-6, 1-Di(isopropyl)-phosphinoyl-hexane], in data set [1], the “ODT-C test results” value is “intense sensation of icy cold, but has unpleasant”; the “quality of heat abstraction sensation” value is “cold and icy cold which was painful to the back of the throat”; the “duration of cooling effect” value is “lasting >10 min”; the ASHRAE equivalent is −3.5.
As to `CCCCCCCP(=O)(C(C)C)C(C)C` [DAPA-1-7, 1-Di(isopropyl)-phosphinoyl-heptane], in data set [1], the “ODT-C test results” value is recorded as “intense sensation of icy cold, but has unpleasant”; the “quality of heat abstraction sensation” value is “cold and icy cold which was painful to the back of the throat”; the “duration of cooling effect” value was “taste on the tongue: test dose of 1 to 2 mg, >15 min”; the ASHRAE equivalent is −3.5. The “Relative Potency” value in data set [2] is reported as 0.11.
Regarding `CCCCCCP(=O)(C(C)CC)C(C)CC` (stereo not drawn) [DAPA-2-6, 1-Di(sec-butyl) phosphinoyl-hexane], in data set [1], the “ODT-C test results” value is given as “intense sensation of icy cold, but has unpleasant”; the “quality of heat abstraction sensation” value was “cold and icy cold which was painful to the back of the throat”; the “duration of cooling effect” value is given as “taste on the tongue, long-lasting >15 min”; the ASHRAE equivalent is recorded as −3.2. Also, the “agonist activity on TRPA1 channels” value in data set [3] is “did not exhibit any agonist activity”. For the same molecule, in data set [4], the “Redness after 20 μL applied topically” value was “+” and the “skin irritancy in words” value is reported as “is a skin irritant”. The “Relative Potency” value in data set [2] was determined as 0.05. Further, the “inhibitory activity for swallowing relative to DAPA-2-5” value in data set [2] (rat, in vivo) amounted to 5%.
